Assays:
[1] = Second experiment: ^13C-labelled compounds once daily for 4 successive days, ^13C/^12C ratio in breath and hair, metabolic model; conditions: oral once daily for 4 days; for Rr, recovery ratio of administered ^13C / dB, distribution ratio of ^13C into breath pathway to administered ^13C / dBf, distribution ratio into fast compartment of breath pathway / dO, distribution ratio of ^13C into other* pathway (hair) to administered ^13C / dOf, distribution ratio into fast compartment of other* pathway / kBf, excretion rate constant, fast compartment, breath pathway / kBs, excretion rate constant, slow compartment, breath pathway / kOf, excretion rate constant, fast compartment, other* pathway / kOs, excretion rate constant, slow compartment, other* pathway: mean
Source text: The rate of ^13C excretion for each pathway (Em, g d^−1) is given by the following equations:1 Em=∑nkmndmdmnkm/km−kmn(e^−kmnt−e^−kmt) where, m is the excretion pathway symbol of B, U, F, and O corresponding to the excretion pathways of breath, urine, faeces, and other*, respectively; n is the symbol of f and s corresponding to the compartments with fast and slow metabolism, respectively; km and kmn are the excretion rate constants from compartment Cm and Cmn, respectively; dm is the distribution ratio of ^13C into compartment Cm to the administered ^13C; dmn is the distribution ratio of ^13C into compartment Cmn to ^13C from compartment Cm; Rr is the recovery ratio of administered ^13C. The sum of distribution ratios of compartments with fast and slow metabolism was fixed to unity (i.e. dBf + dBs = 1).
Additional doses of ^13C-labelled compounds were administered on day 160 for marking the ^13C/^12C ratio of hair samples and the volunteers freely ate meals without calorific restrictions.
In the first experiment, breath, urine, faeces, and hair samples were periodically collected and the ^13C/^12C ratio was analysed following the procedure described in a previous paper. […] Faecal samples were collected once before day 0 and at every defecation from day 0 to 14. On day 0, additional breath and urine samples were collected frequently after administration. […] According to the section number of the two peaks, the experimental date for each section between the two peaks was determined under an assumption of uniform hair growth.
Some volunteers also dropped out of the sampling procedure for various reasons.
The detailed procedures used were described in a previous published paper. When urine and hair samples had no increase phase, the values of kU and kO were fixed to those of kB obtained from the same volunteers in the regression analysis.

[2] = parameters: method as in doi:10.1093/oxfordjournals.rpd.a032384; conditions: rats, 100 days after administration; cited from earlier work
[3] = parameters: method as in PMID 14371643; conditions: intravenous administration; cited from earlier work
[4] = 50-year cumulative body burden and committed effective dose / dose coefficient calculated with the metabolic models; parameters: species or system human; conditions: orally ingested 1 g of ^13C
Source text: The dose coefficients obtained with each assumption are called non conservative estimation (ER) and conservative estimation (EC) hereafter. The recovered fraction was assumed to be distributed uniformly in the whole-body carbon with a tissue weighting factor of unity. […] In addition to these estimations, we calculated the most conservative estimation (EX) adopting the tissue weighting factor of unity for unrecovered carbon. We solely adopted the value for the maximal estimation.
The 50-year cumulative body burden of ^14C after a single ingestion of 1 Bq of ^14C in each compound (BC Bq d) was calculated using the metabolic model and its parameters described above, under the assumption of the same metabolic behaviour of ^13C and ^14C. […] The total cumulative burden was derived as a sum of burdens from the recoverable and unrecoverable fractions with designated proportions Rr and 1−Rr, respectively. For the recoverable fraction, the burden was calculated using following equation:2 BC≈∑mdm/km+∑m∑ndmdmn/kmn where, every dm was divided by Rr when Rr was larger than unity.
The 50-year committed effective dose (Sv) from ingestion of 1 Bq ^14C was calculated from the 50-year cumulative burden by using the ratio of absorbed dose to ^14C radioactivity, radiation weighting factor of beta-ray from ^14C (1.0) and tissue weighting factors. […]

For `NCC(=O)O` [Glycine, glycine], the “Rr, recovery ratio of administered ^13C” value ([1]; All (both sexes)) was 1.0, the “dB, distribution ratio of ^13C into breath pathway to administered ^13C” value (“dB, distribution ratio” for short) ([1]; All (both sexes)) was 0.80 and the “dBf, distribution ratio into fast compartment of breath pathway” value ([1]; All (both sexes)) was 0.36. The “dO, distribution ratio of ^13C into other* pathway (hair) to administered ^13C” value (“dO, distribution ratio” for short) ([1]; All (both sexes)) was 0.18, the “dOf, distribution ratio into fast compartment of other* pathway” value ([1]; All (both sexes)) was 0.50 and the “kBf, excretion rate constant, fast compartment, breath pathway” value (shortened to “kBf, excretion rate constant”) ([1]; All (both sexes)) was 11 day⁻¹. For the same compound, the “kBs, excretion rate constant, slow compartment, breath pathway” value (from here on “kBs, excretion rate constant”) ([1]; All (both sexes)) was 0.17 day⁻¹, the “kOf, excretion rate constant, fast compartment, other* pathway” value (“kOf, excretion rate constant” for short) ([1]; All (both sexes)) was 0.10 day⁻¹ and the “kOs, excretion rate constant, slow compartment, other* pathway” value (“kOs, excretion rate constant” for short) ([1]; All (both sexes)) was 0.0086 day⁻¹. For the same compound, the “Rr, recovery ratio of administered ^13C” value ([1]; Female) was 1.0, the “dB, distribution ratio” value ([1]; Female) was 0.84 and the “dBf, distribution ratio into fast compartment of breath pathway” value ([1]; Female) was 0.36. For the same compound, the “dO, distribution ratio” value ([1]; Female) was 0.18, the “dOf, distribution ratio into fast compartment of other* pathway” value ([1]; Female) was 0.52 and the “kBf, excretion rate constant” value ([1]; Female) was 11 day⁻¹. For the same compound, the “kBs, excretion rate constant” value ([1]; Female) was 0.18 day⁻¹, the “kOf, excretion rate constant” value ([1]; Female) was 0.098 day⁻¹ and the “kOs, excretion rate constant” value ([1]; Female) was 0.0091 day⁻¹. For the same compound, the “Rr, recovery ratio of administered ^13C” value ([1]; Male) was 0.93, the “dB, distribution ratio” value ([1]; Male) was 0.74 and the “dBf, distribution ratio into fast compartment of breath pathway” value ([1]; Male) was 0.37. For the same compound, the “dO, distribution ratio” value ([1]; Male) was 0.18, the “dOf, distribution ratio into fast compartment of other* pathway” value ([1]; Male) was 0.47 and the “kBf, excretion rate constant” value ([1]; Male) was 9.7 day⁻¹. For the same compound, the “kBs, excretion rate constant” value ([1]; Male) was 0.16 day⁻¹, the “kOf, excretion rate constant” value ([1]; Male) was 0.11 day⁻¹ and the “kOs, excretion rate constant” value ([1]; Male) was 0.0080 day⁻¹. The “estimated distribution ratio of ^13C for the breath pathway (dB)” value ([1]; mean ± S.D., both sexes) was 80 ± 9%.

In the case of `CCCCCCCC/C=C\CCCCCCCC(=O)O` [^14C-labelled oleic acid, oleic acid], the “^14C concentration in adipose tissue relative to that of palmitic acid” value [2] is given as “three times higher”.

For `N[14CH2]C(=O)O` [glycine-[2-^14C]], the “recovery through the breath pathway” value [3] is given as 86%.

For `CCCCCCCCCCCCCCCC(=O)O` [palmitic acid], the “contribution of faeces pathway to 50-year cumulative body burden” value [4] was 0.034 ± 0.070% and the “contribution of urine pathway to 50-year cumulative body burden” value [4] was 0.038 ± 0.030%.

Reference: publication PMC7235250, “Estimation of dietary ^14C dose coefficient using ^13C-labelled compound administration analysis” (Scientific Reports, 2020)
